Data as given in ChEMBL document CHEMBL1201862, “PubChem BioAssay data set” (2004).
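Assay format: 96-well plates, 48-hour exposure. GI50 marks 50% less growth.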 The source made the active and inactive calls. Cut-off read from the data, not from the text of the source: active = GI50 up to about 1.1 µM and inactive = higher.

Legend:
Experiment in all cases: NCI-60 cell line screen, 48 h
[1] = system: A498
[2] = system: OVCAR-5
[3] = system: OVCAR-3
[4] = system: HL-60
[5] = system: MDA-N
[6] = system: NCI-H522
[7] = system: COLO 205
[8] = system: U-251
[9] = system: HCC 2998
[10] = system: SK-MEL-2
[11] = system: KM12
[12] = system: K562
[13] = system: UACC-62
[14] = system: PC-3
[15] = system: 786-0
[16] = system: EKVX
[17] = system: MCF7
[18] = system: SK-MEL-5
[19] = system: ACHN
[20] = system: RPMI-8226
[21] = system: IGROV-1
[22] = system: HCT-116
[23] = system: SF-539
[24] = system: OVCAR-8
[25] = system: UACC-257
[26] = system: CAKI-1
[27] = system: SF-295
[28] = system: SNB-75
[29] = system: M14
[30] = system: NCI-H460
[31] = system: NCI/ADR-RES
[32] = system: NCI-H226
[33] = system: T47D
[34] = system: RXF 393
[35] = system: HCT-15
[36] = system: A549
[37] = system: HOP-62
[38] = system: SR
[39] = system: UO-31
[40] = system: HT-29
[41] = system: SF-268
[42] = system: MOLT-4
[43] = system: CCRF-CEM
[44] = system: Malme-3M
[45] = system: NCI-H23
[46] = system: SN12C
[47] = system: MDA-MB-231
[48] = system: SNB-19
[49] = system: DU-145
[50] = system: OVCAR-4
[51] = system: HOP-92
[52] = system: LOX IMVI
[53] = system: TK-10
[54] = system: SK-OV-3
[55] = system: SW-620
[56] = system: SK-MEL-28

N#C[BH2-][n+]1cn(C2CC(O)C(COP(=O)(O)OC3CC(n4ccc(N)nc4=O)OC3CO)O2)c2nc(N)[nH]c(=O)c21 (stereo not given)
GI50 [1]: > 100 µM (inactive)
GI50 [2]: > 100 µM (inactive)
GI50 [3]: > 100 µM (inactive)
GI50 [4]: > 100 µM (inactive)
GI50 [5]: > 100 µM (inactive)
GI50 [6]: > 100 µM (inactive)
GI50 [7]: > 100 µM (inactive)
GI50 [8]: > 100 µM (inactive)
GI50 [9]: > 100 µM (inactive)
GI50 [10]: > 100 µM (inactive)
GI50 [11]: > 100 µM (inactive)
GI50 [12]: 10 µM (inactive)
GI50 [13]: > 100 µM (inactive)
GI50 [14]: > 100 µM (inactive)
GI50 [15]: > 100 µM (inactive)
GI50 [16]: > 100 µM (inactive)
GI50 [17]: > 100 µM (inactive)
GI50 [18]: > 100 µM (inactive)
GI50 [19]: > 100 µM (inactive)
GI50 [20]: > 100 µM (inactive)
GI50 [21]: > 100 µM (inactive)
GI50 [22]: > 100 µM (inactive)
GI50 [23]: > 100 µM (inactive)
GI50 [24]: > 100 µM (inactive)
GI50 [25]: > 100 µM (inactive)
GI50 [26]: > 100 µM (inactive)
GI50 [27]: > 100 µM (inactive)
GI50 [28]: > 100 µM (inactive)
GI50 [29]: > 100 µM (inactive)
GI50 [30]: > 100 µM (inactive)
GI50 [31]: > 100 µM (inactive)
GI50 [32]: > 100 µM (inactive)
GI50 [33]: > 100 µM (inactive)
GI50 [34]: > 100 µM (inactive)
GI50 [35]: > 100 µM
GI50 [36]: > 100 µM (inactive)
GI50 [37]: > 100 µM (inactive)
GI50 [38]: > 100 µM (inactive)
GI50 [39]: > 100 µM (inactive)
GI50 [40]: > 100 µM (inactive)
GI50 [41]: > 100 µM (inactive)
GI50 [42]: > 100 µM (inactive)
GI50 [43]: > 100 µM (inactive)
GI50 [44]: > 100 µM (inactive)
GI50 [45]: > 100 µM (inactive)
GI50 [46]: > 100 µM (inactive)
GI50 [47]: > 100 µM (inactive)
GI50 [48]: > 100 µM (inactive)
GI50 [49]: > 100 µM (inactive)
GI50 [50]: > 100 µM (inactive)
GI50 [51]: > 100 µM (inactive)

CN(C)C1COC2Cc3ccccc3C1O2 (stereo not given)
GI50 [2]: > 100 µM (inactive)
GI50 [52]: > 100 µM (inactive)
GI50 [53]: > 100 µM (inactive)
GI50 [12]: > 100 µM (inactive)
GI50 [19]: > 100 µM (inactive)
GI50 [22]: > 100 µM (inactive)
GI50 [24]: > 100 µM (inactive)
GI50 [26]: > 100 µM (inactive)
GI50 [27]: > 100 µM (inactive)
GI50 [29]: > 100 µM (inactive)
GI50 [54]: > 100 µM (inactive)
GI50 [34]: > 100 µM (inactive)
GI50 [35]: > 100 µM
GI50 [36]: > 100 µM (inactive)
GI50 [38]: > 100 µM (inactive)
GI50 [40]: > 100 µM (inactive)
GI50 [41]: > 100 µM (inactive)
GI50 [45]: > 100 µM (inactive)
GI50 [46]: > 100 µM (inactive)
GI50 [50]: > 100 µM (inactive)
GI50 [51]: > 100 µM (inactive)

NC1=NC(=O)C2(NN1)c1ccccc1-c1ccccc12
GI50 [1]: 3.94 µM (inactive)
GI50 [2]: > 10 µM (inactive)
GI50 [3]: > 10 µM (inactive)
GI50 [4]: 8.99 µM (inactive)
GI50 [5]: > 10 µM (inactive)
GI50 [7]: > 10 µM (inactive)
GI50 [8]: 7.62 µM (inactive)
GI50 [9]: > 10 µM (inactive)
GI50 [52]: > 10 µM (inactive)
GI50 [53]: > 10 µM (inactive)
GI50 [10]: > 10 µM (inactive)
GI50 [11]: > 10 µM (inactive)
GI50 [55]: > 10 µM (inactive)
GI50 [12]: 9.82 µM (inactive)
GI50 [14]: > 10 µM (inactive)
GI50 [15]: > 10 µM (inactive)
GI50 [17]: 3.26 µM (inactive)
GI50 [18]: > 10 µM (inactive)
GI50 [19]: 6.17 µM (inactive)
GI50 [56]: > 10 µM (inactive)
GI50 [20]: > 10 µM (inactive)
GI50 [21]: > 10 µM (inactive)
GI50 [22]: > 10 µM (inactive)
GI50 [23]: > 10 µM (inactive)
GI50 [24]: > 10 µM (inactive)
GI50 [26]: > 10 µM (inactive)
GI50 [27]: > 10 µM (inactive)
GI50 [28]: > 10 µM (inactive)
GI50 [29]: > 10 µM (inactive)
GI50 [30]: > 10 µM (inactive)
GI50 [31]: 7.41 µM (inactive)
GI50 [54]: > 10 µM (inactive)
GI50 [32]: > 10 µM (inactive)
GI50 [33]: 2.42 µM (inactive)
GI50 [34]: > 10 µM (inactive)
GI50 [35]: > 10 µM
GI50 [36]: > 10 µM (inactive)
GI50 [37]: > 10 µM (inactive)
GI50 [38]: > 10 µM (inactive)
GI50 [39]: > 10 µM (inactive)
GI50 [41]: > 10 µM (inactive)
GI50 [42]: > 10 µM (inactive)
GI50 [43]: > 10 µM (inactive)
GI50 [44]: > 10 µM (inactive)
GI50 [45]: > 10 µM (inactive)
GI50 [46]: > 10 µM (inactive)
GI50 [48]: > 10 µM (inactive)
GI50 [51]: > 10 µM (inactive)
